Key:
hERG = hERG (Homo sapiens, UniProt Q12809); test: hERG activity (planar-array-based voltage clamp); type: cell-based; details: modified method of Kiss et al.
Procedure: hERG testing was performed using a modified version of the method described by Kiss et al., “High throughput ion-channel pharmacology: planar-array-based voltage clamp.” Assay Drug Dev Technol., 2003, 1, 127-35.

[1] = molecular target: T1, human melanin concentrating hormone receptor 1 (hMCHr1) (Homo sapiens, UniProt Q99705); test: MCHr1 radioligand binding (125I-MCH displacement); details: membranes from CHO-K1 cells expressing hMCHr1, 125I-MCH
T1 construct: purchased Euroscreen; host or cells: CHO-K1
Procedure: Assays were performed on membranes prepared from CHO-K1 cells expressing the human melanin concentrating hormone receptor 1 (hMCHr1, […] protein; Euroscreen). Assays were performed in a 96-well plate format in a final reaction volume of […] per well. Each well contained 6 μg of membrane proteins diluted in binding buffer (50 mM Tris, 3 mM MgCl2, 0.05% bovine serum albumin and the radioligand ^125I-MCH (IM344 Amersham) was added to give 10 000 cpm (counts per minute) per well. Each well contained 2 μl of the appropriate concentration of competitive antagonist prepared in DMSO or in HOAc and left to stand at 30° C. for 60 minutes. Non-specific binding was determined as that remaining following incubation with 1 μM MCH (Melanin concentrating hormone, H-1482 Bachem). The reaction was terminated by transfer of the reaction to GF/A filters using a Micro96 Harvester (Skatron Instruments, Norway). Filters were washed with assay buffer. Radioligand retained on the filters was quantified using a 1450 Microbeta TRILUX (Wallac, Finland).
Non-specific binding was subtracted from all values determined. Maximum binding was that determined in the absence of any competitor following subtraction of the value determined for non-specific binding. Binding of compounds at various concentrations was plotted according to the equation y=A+((B−A)/1+((C/x)^D))) and IC50 estimated where: […]

recombinant hMCHr1 = molecular target: T2, recombinant hMCHr1 (Homo sapiens, UniProt Q99705); test: MCHr1 functional assay ([35S]GTPγS); type: biochemical; details: hMCHr1 membranes, ED80 concentration of MCH
T2 construct: purchased Euroscreen
Procedure: Membranes expressing recombinant hMCHr1 (5.45 pmol/mg protein; Euroscreen) were prepared in assay buffer (50 mM HEPES, 100 mM NaCl, 5 mM MgCl2, 1 mM EDTA, 200 μM DTT, 20 μM GDP (Sigma) containing 0.1 μg/ml BSA, pH7.4) before assay. The assays were performed using membranes at 6 μg/well in an assay volume of 200 μL and the appropriate concentrations of compounds prepared in DMSO or in HOAc. The reaction was started by addition of 0.056 nM [^35S]GTPγS (Specific activity >1000 Ci/mmol; Amersham) and an ED80 concentration of MCH (determined for each membrane and each MCH batch). Non-specific binding was determined using 20 μM non-radiolabelled GTPγS. Plates were incubated for 45 min at 30° C. Free and bound GTPγS were separated by filtration binding using GF/B filter mats presoaked in wash buffer (50 mM Tris, 5 mM MgCl2, 50 mM NaCl, pH 7.4) using a Micro96 cell harvester (Skatron Instruments) and the filters then dried at 50° C. before counting using a 1450 Microbeta TRILUX (Wallac).
Data are means±SD for experiments performed in triplicate. IC50 values of antagonists were determined using non-linear regression analysis of concentration response curves using Activity Base.

T2 sequence (Q99705 whole entry): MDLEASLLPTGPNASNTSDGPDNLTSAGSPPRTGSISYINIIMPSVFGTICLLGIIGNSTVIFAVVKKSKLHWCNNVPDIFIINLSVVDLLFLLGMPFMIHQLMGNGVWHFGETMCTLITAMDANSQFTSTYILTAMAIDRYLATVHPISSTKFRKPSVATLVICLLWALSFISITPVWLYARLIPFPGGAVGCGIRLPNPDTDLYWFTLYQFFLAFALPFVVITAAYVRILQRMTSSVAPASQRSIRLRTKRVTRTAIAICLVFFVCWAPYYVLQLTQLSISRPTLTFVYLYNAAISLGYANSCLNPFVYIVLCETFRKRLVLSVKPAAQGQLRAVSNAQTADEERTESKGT
T1 sequence (Q99705 whole entry): as above
Sequence of hERG (Q12809 whole entry): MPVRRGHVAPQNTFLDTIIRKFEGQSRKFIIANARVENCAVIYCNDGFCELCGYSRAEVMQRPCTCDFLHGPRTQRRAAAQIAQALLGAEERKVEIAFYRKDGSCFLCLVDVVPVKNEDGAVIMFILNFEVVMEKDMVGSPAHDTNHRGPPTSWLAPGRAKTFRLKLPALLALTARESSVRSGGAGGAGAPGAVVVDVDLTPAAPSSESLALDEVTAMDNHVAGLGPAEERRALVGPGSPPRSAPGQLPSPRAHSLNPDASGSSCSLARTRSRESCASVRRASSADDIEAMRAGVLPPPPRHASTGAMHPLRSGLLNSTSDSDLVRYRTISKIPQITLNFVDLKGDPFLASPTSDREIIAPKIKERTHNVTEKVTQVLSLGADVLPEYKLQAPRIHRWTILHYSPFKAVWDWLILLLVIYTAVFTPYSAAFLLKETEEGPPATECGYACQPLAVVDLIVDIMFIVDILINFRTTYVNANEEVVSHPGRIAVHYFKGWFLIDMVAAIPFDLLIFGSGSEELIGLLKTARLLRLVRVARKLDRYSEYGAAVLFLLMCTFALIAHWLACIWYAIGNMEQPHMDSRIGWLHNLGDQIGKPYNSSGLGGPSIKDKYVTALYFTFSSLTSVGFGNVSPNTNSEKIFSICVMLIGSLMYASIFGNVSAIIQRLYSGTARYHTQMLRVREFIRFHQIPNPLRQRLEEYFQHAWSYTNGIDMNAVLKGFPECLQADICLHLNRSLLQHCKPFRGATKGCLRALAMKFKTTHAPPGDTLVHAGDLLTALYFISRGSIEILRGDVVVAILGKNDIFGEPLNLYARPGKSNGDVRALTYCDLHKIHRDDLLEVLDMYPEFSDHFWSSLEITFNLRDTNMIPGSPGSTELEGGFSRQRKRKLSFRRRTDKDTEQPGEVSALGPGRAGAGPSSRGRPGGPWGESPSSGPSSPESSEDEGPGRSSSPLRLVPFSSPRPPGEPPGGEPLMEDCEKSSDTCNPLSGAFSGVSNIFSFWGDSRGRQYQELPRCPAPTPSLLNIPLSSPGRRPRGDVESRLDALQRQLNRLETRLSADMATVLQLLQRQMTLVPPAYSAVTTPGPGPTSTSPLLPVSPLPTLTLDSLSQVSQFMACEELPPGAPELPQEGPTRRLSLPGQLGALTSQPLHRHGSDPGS

CN1[C@@H]2CC[C@H]1C[C@@H](Oc1cccc(Cn3cnc4cc(-c5ccc(Cl)cc5)sc4c3=O)c1)C2 [Example 1, 6-(4-Chlorophenyl)-3-(3-{[(3-endo)-8-methyl-8-azabicyclo[3.2.1]oct-3-yl]oxy}benzyl)thieno[3,2-d]pyrimidin-4(3H)-one]
IC50 (hERG): 6500 nM
IC50 [1]: 26 nM

CN1CCN(Cc2cccc(Cn3cnc4cc(-c5ccc(Cl)cc5)sc4c3=O)c2)CC1 [Example 5, 6-(4-Chlorophenyl)-3-{3-[(4-methylpiperazin-1-yl)methyl]benzyl}thieno[3,2-d]pyrimidin-4(3H)-one]
IC50 (recombinant hMCHr1): 42 nM

CN1CCC(Oc2cccc(Cn3cnc4cc(-c5ccc(Cl)cc5)sc4c3=O)n2)CC1 [Example 11, 6-(4-Chlorophenyl)-3-({6-[(1-methylpiperidin-4-yl)oxy]pyridin-2-yl}methyl)thieno[3,2-d]pyrimidin-4(3H)-one]
melting point: 202 to 203 °C

— patent US7723331B2, “Thienopyrimidine compounds and uses thereof” (AstraZeneca AB, priority 2006, dated 2010)
